# Literature values in PubChem BioAssay AID1259409 (Chemical Carcinogenesis Research Information System (CCRIS), 2018).
# Where “and” joins values, the source holds several entries; their conditions need not be identical. Identical values can stand only once.
# System: rodent chemically induced tumor inhibition, incidence and multiplicity
# Assay: CCRIS tumor inhibitor studies
smiles,measurement,setting,value
O=C(c1ccc(OCCN2CCCCC2)cc1)c1c(-c2ccc(O)cc2)sc2cc(O)ccc12,"tumour outcome (control, treated, inhibition, significance)","Carcinogen: 7,12-DIMETHYLBENZ[A]ANTHRACENE (DMBA) [57-97-6], Dose [Inhibitor]: 50 MG/KG/D FOR 37 WK (STUDY DURATION: 37 WK), Route [Inhibitor]: ORAL GAVAGE, Species: MOUSE, Strain/Sex: SENCAR/FEMALE, Target Tissue: Type of Lesion: MAMMARY: CARCINOMA, Dose [Carcinogen]: 20 UG/D FOR 6 WKS (STUDY DURATION: 37 WKS), Promoter: MEDROXYPROGESTERONE ACETATE (71-58-9)","10/21 (48%); 5/17 (29%), 40%, p=0.20"
same,"tumour outcome (control, treated, inhibition, significance)","Carcinogen: ESTRADIOL, 50-28-2, Dose [Inhibitor]: 0, 25 MG PELLET 2 PELLETS IMPLANTED EVERY 3 MO BEGINNING 15 D PRIOR TO CARCINOGEN DOSE (STUDY DURATION: 8 MO), Route [Inhibitor]: SUBCUTANEOUS IMPLANT, Species: HAMSTER, Strain/Sex: SYRIAN/MALE, Target Tissue: Type of Lesion: KIDNEY: TUMOR, Dose [Carcinogen]: 25 MG PELLET IMPLANTED EVERY 3 MO, Promoter: NONE USED","5/5 (100%), 3/4 (75%), 25%, not significant"
same,"tumour outcome (control, treated, inhibition, significance)","Carcinogen: N-METHYL-N-NITROSOUREA, 684-93-5, Dose [Inhibitor]: 0, 5 MG/KG BW/D 2/WK TO DORSAL AREA STARTING 10 D BEFORE CARCINOGEN TREATMENT FOR THE DURATION OF THE STUDY (STUDY DURAT, Route [Inhibitor]: SUBCUTANEOUSLY, Species: RAT, Strain/Sex: SPRAGUE-DAWLEY/FEMALE, Target Tissue: Type of Lesion: MAMMARY GLAND: TUMOR, Dose [Carcinogen]: 50 MG/KG BW 2/WK FOR 1 WK BW 43-54 POSTNATAL DAYS","80%, 26%, 67%, p<0.001"
same,"tumour outcome (control, treated, inhibition, significance)","Carcinogen: N-METHYL-N-NITROSOUREA, 684-93-5, Dose [Inhibitor]: 0, 20 MG/KG OF DIET FOR DURATION OF STUDY BEGINNING 1 WK POST CARCINOGEN DOSE (STUDY DURATION: 5 MO), Route [Inhibitor]: ORAL, Species: RAT, Strain/Sex: SPRAGUE-DAWLEY/FEMALE, Target Tissue: Type of Lesion: MAMMARY GLAND: TUMOR, Dose [Carcinogen]: 50 MG/KG BW ONCE, Promoter: NONE USED","23/24 (96%), 10/12 (83%), 14%, p=0.26 and 29/30 (97%), 14/30 (47%), 52%, p=0.0001"
same,"tumour outcome (control, treated, inhibition, significance)","Carcinogen: N-METHYL-N-NITROSOUREA, 684-93-5, Dose [Inhibitor]: 0, 60 MG/KG OF DIET FOR DURATION OF STUDY BEGINNING 1 WK POST CARCINOGEN DOSE (STUDY DURATION: 5 MO), Route [Inhibitor]: ORAL, Species: RAT, Strain/Sex: SPRAGUE-DAWLEY/FEMALE, Target Tissue: Type of Lesion: MAMMARY GLAND: TUMOR, Dose [Carcinogen]: 50 MG/KG BW ONCE, Promoter: NONE USED","23/24 (96%), 8/12 (67%), 30%, p=0.03 and 29/30 (97%), 15/30 (50%), 48%, p=0.0002"
